In assay [1] the target is human CB2 receptors (Homo sapiens (Human), UniProt P34972). In words: human CB2 radioligand binding assay ([3H]CP 55,940 competition). As to the method:
(§1) The CB1 and CB2 radioligand binding assays described herein are utilized to ascertain the affinity of compounds of the present application for binding to CB2 relative to CB1 receptors.
HEK293 cells stably expressing human CB2 receptors were grown until a confluent monolayer was formed. Briefly, the cells were harvested and homogenized in TE buffer (50 mM Tris-HCl, 1 mM MgCl2, and 1 mM EDTA) using a polytron for 2×10 second bursts in the presence of protease inhibitors, followed by centrifugation at 45,000×g for 20 minutes. The final membrane pellet was re-homogenized in storage buffer (50 mM Tris-HCl, 1 mM MgCl2, and 1 mM EDTA and 10% sucrose) and frozen at −78° C. until used. Saturation binding reactions were initiated by the addition of membrane preparation (protein concentration of 5 μg/well for human CB2) into wells of a deep well plate containing [^3H]CP 55,940 (120 Ci/mmol, a nonselective CB agonist commercially available from Tocris) in assay buffer (50 mM Tris, 2.5 mM EDTA, 5 mM MgCl2, and 0.5 mg/mL fatty acid free BSA, pH 7.4). After 90 min incubation at 30° C., binding reaction was terminated by the addition of 300 μL/well of cold assay buffer followed by rapid vacuum filtration through a UniFilter-96 GF/C filter plates (pre-soaked in 1 mg/mL BSA for 2 hours). The bound activity was counted in a TopCount using Microscint-20. Saturation experiments were conducted with twelve concentrations of [^3H]CP 55,940 ranging from 0.01 to 8 nM. Competition experiments were conducted with 0.5 nM [^3H]CP 55,940 and five concentrations (0.01 nM to 10 μM) of displacing ligands. The addition of 10 μM unlabeled CP 55,940 (Tocris, Ellisville, Mo.) was used to assess nonspecific binding.

The target in assay [2] is rat CB2 (Rattus norvegicus (Rat), UniProt Q9QZN9). Kind of assay: rat CB2 radioligand binding assay ([3H]CP 55,940 competition). As to the method:
as §1
HEK293 cells stably expressing rat CB2 receptors were grown until a confluent monolayer was formed. Briefly, the cells were harvested and homogenized in TE buffer (50 mM Tris-HCl, 1 mM MgCl2, and 1 mM EDTA) using a polytron for 2×10 second bursts in the presence of protease inhibitors, followed by centrifugation at 45,000×g for 20 minutes. The final membrane pellet was re-homogenized in storage buffer (50 mM Tris-HCl, 1 mM MgCl2, and 1 mM EDTA and 10% sucrose) and frozen at −78° C. until used. Saturation binding reactions were initiated by the addition of membrane preparation (protein concentration of 20 μg/well for rat CB2) into wells of a deep well plate containing [^3H]CP 55,940 (120 Ci/mmol, a nonselective CB agonist commercially available from Tocris) in assay buffer (50 mM Tris, 2.5 mM EDTA, 5 mM MgCl2, and 0.5 mg/mL fatty acid free BSA, pH 7.4). After 45 min incubation at 30° C., binding reaction was terminated by the addition of 300 μl/well of cold assay buffer followed by rapid vacuum filtration through a UniFilter-96 GF/C filter plates (pre-soaked in 1 mg/mL BSA for 2 hours). The bound activity was counted in a TopCount using Microscint-20. Saturation experiments were conducted with twelve concentrations of [^3H]CP 55,940 ranging from 0.01 to 8 nM. Competition experiments were conducted with 0.5 nM [^3H]CP 55,940 and five concentrations of displacing ligands selected from the range of 0.01 nM to […] addition of 10 μM unlabeled CP 55,940 (Tocris, Ellisville, Mo.) was used to assess nonspecific binding.

Where [3] appears, read: HEK293 membranes, 0.5 nM [3H]CP 55,940, read-out: human CB2 (Ki).
[4] abbreviates: HEK293 membranes, 0.5 nM [3H]CP 55,940, read-out: rat CB2 (Ki).

Read-outs that look alike come from different tables or passages of the source.

human CB2 receptors, sequence (P34972 whole entry): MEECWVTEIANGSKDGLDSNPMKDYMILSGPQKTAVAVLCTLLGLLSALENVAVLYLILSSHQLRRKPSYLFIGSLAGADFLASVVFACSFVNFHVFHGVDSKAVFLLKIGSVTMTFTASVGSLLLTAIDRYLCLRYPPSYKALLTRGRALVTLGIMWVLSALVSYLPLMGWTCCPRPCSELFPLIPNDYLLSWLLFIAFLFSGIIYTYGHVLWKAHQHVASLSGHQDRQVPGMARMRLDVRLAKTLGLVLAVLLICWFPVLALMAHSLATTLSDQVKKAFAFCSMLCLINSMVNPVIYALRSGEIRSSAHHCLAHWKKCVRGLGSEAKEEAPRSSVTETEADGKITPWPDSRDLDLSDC
rat CB2, sequence (Q9QZN9 whole entry): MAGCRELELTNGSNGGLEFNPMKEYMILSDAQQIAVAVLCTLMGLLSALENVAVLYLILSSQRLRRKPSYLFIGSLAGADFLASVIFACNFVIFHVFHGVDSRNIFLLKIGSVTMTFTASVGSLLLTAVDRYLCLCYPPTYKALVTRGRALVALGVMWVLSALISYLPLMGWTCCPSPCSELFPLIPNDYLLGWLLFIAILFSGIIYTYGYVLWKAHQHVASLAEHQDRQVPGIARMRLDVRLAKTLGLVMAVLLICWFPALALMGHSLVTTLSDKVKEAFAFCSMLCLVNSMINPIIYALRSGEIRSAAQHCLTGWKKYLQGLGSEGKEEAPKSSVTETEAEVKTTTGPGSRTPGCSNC

The Ki is the dissociation constant of the complex between target and ligand, obtained from inhibition or displacement. Regarding `CCCCn1nc(C(C)(C)C)s/c1=N\C(=O)c1cc(C(F)(F)F)ccc1ON(C)C` [Example 171, N-[(2Z)-3-butyl-5-tert-butyl-1,3,4-thiadiazol-2(3H)-ylidene]-2-[(dimethylamino)oxy]-5-(trifluoromethyl)benzamide], the results for the Ki in assay [1] and in assay [2] were 21 nM and 4.9 nM, respectively.
Turning to `CC(C)(C)NOc1ccc(C(F)(F)F)cc1C(=O)/N=c1\sc(C(C)(C)C)nn1CCCCF` [Example 174, 2-[(tert-butylamino)oxy]-N-[(2Z)-5-tert-butyl-3-(4-fluorobutyl)-1,3,4-thiadiazol-2(3H)-ylidene]-5-(trifluoromethyl)benzamide], the Ki was found to be 6.2 nM in assay [1] (setting [3]) and 1.1 nM in assay [2] (setting [4]).
For the compound `CCCCn1nc(C(C)(C)C)s/c1=N\C(=O)c1cc(C(F)(F)F)ccc1ON=C(N)C(C)C` [Example 175, 2-({[1-amino-2-methylpropylidene]amino}oxy)-N-[(2Z)-3-butyl-5-tert-butyl-1,3,4-thiadiazol-2(3H)-ylidene]-5-(trifluoromethyl)benzamide], the results for the Ki in assay [1] (setting [3]) and in assay [2] (setting [4]) were 5.3 nM and 2.9 nM, respectively.
`CCCCn1nc(C(C)(C)C)s/c1=N\C(=O)c1cc(C(F)(F)F)ccc1ON=C(N)C(=O)OCC` [Example 176, ethyl amino {[2-({[(2Z)-3-butyl-5-tert-butyl-1,3,4-thiadiazol-2(3H)-ylidene]amino}carbonyl)-4-(trifluoromethyl)phenoxy]imino}acetate]: the figures for the inhibition constant Ki in assay [1] (setting [3]) and in assay [2] (setting [4]) were 6.1 nM and 1.7 nM, respectively.
Turning to `CC(C)(C)NOc1ccc(C(F)(F)F)cc1C(=O)/N=c1\sc(C(C)(C)C)nn1CC1CCO1` (stereo not shown) [Example 177, 2-[(tert-butylamino)oxy]-N-[(2Z)-5-tert-butyl-3-(oxetan-2-ylmethyl)-1,3,4-thiadiazol-2(3H)-ylidene]-5-(trifluoromethyl)benzamide], the inhibition constant Ki in assay [1] (setting [3]) stood at 15 nM; in assay [2] (setting [4]), 7.3 nM.
Turning to `C/C(=N\Oc1ccc(C(F)(F)F)cc1C(=O)/N=c1\cc(C(C)(C)C)n(C)n1C[C@H]1CCCO1)C(F)(F)F` [Example 178, N-{(3E)-5-tert-butyl-1-methyl-2-[(2R)-tetrahydrofuran-2-ylmethyl]-1,2-dihydro-3H-pyrazol-3-ylidene}-5-(trifluoromethyl)-2-({[(1E)-2,2,2-trifluoro-1-methylethylidene]amino}oxy)benzamide], the Ki in assay [1] (setting [3]) was over 1000 nM; in assay [2] (setting [4]), 40 nM.
The corresponding values for `C/C(=N\Oc1ccc(C(F)(F)F)cc1C(=O)/N=c1\cc(C(C)(C)C)n(C)n1CC1CC1)C(F)(F)F` [Example 179, N-[(3E)-5-tert-butyl-2-(cyclopropylmethyl)-1-methyl-1,2-dihydro-3H-pyrazol-3-ylidene]-5-trifluoromethyl-2-({[(1E)-2,2,2-trifluoro-1-methylethylidene]amino}oxy)benzamide] are over 1000 nM and 288 nM.
The corresponding values for `CCCCn1nc(C(C)(C)C)s/c1=N\C(=O)c1cc(C(F)(F)F)ccc1O/N=C(\C)C(C)=O` [Example 180, N-[(2Z)-3-butyl-5-tert-butyl-1,3,4-thiadiazol-2(3H)-ylidene]-2-({[(1E)-1-methyl-2-oxopropylidene]amino}oxy)-5-(trifluoromethyl)benzamide] are 18 nM and 11 nM.
In the case of `CCCCn1nc(C(C)(C)C)s/c1=N\C(=O)c1cc(C(F)(F)F)ccc1NNC(=O)OC(C)(C)C` [Example 181, tert-butyl 2-[2-({[(2Z)-3-butyl-5-tert-butyl-1,3,4-thiadiazol-2(3H)-ylidene]amino}carbonyl)-4-(trifluoromethyl)phenyl]hydrazinecarboxylate], the inhibition constant Ki was 1 nM in assay [1] and 1.7 nM in assay [2].
In the case of `CCCCn1nc(C(C)(C)C)s/c1=N\C(=O)c1cc(C(F)(F)F)ccc1ON=C(N)c1ccc(F)cc1` [Example 182, 2-({[amino(4-fluorophenyl)methylene]amino}oxy)-N-[(2Z)-3-butyl-5-tert-butyl-1,3,4-thiadiazol-2(3H)-ylidene]-5-(trifluoromethyl)benzamide], the Ki was determined as 21 nM in assay [1] (setting [3]) and 7 nM in assay [2] (setting [4]).
The matching figures for `CCCCn1nc(C(C)(C)C)s/c1=N\C(=O)c1cc(C(F)(F)F)ccc1NNc1ccccn1` [Example 183, N-[(2Z)-3-butyl-5-tert-butyl-1,3,4-thiadiazol-2(3H)-ylidene]-2-(2-pyridin-2-ylhydrazino)-5-(trifluoromethyl)benzamide]: 32 nM and 5.6 nM.
The matching figures for `CCCCn1nc(C(C)(C)C)s/c1=N\C(=O)c1cc(C(F)(F)F)ccc1N(C)N(C)C(=O)OC(C)(C)C` [Example 184]: 279 nM and 35 nM.
The corresponding values for `CCCCn1nc(C(C)(C)C)s/c1=N\C(=O)c1cc(C(F)(F)F)ccc1ON=C(C)N` [Example 185, 2-({[1-aminoethylidene]amino}oxy)-N-[(2Z)-3-butyl-5-tert-butyl-1,3,4-thiadiazol-2(3H)-ylidene]-5-(trifluoromethyl)benzamide] are 16 nM and 3.6 nM.
For the compound `CCCCn1nc(C(C)(C)C)s/c1=N\C(=O)c1cc(C(F)(F)F)ccc1ON=C(N)CC` [Example 186, 2-({[1-aminopropylidene]amino}oxy)-N-[(2Z)-3-butyl-5-tert-butyl-1,3,4-thiadiazol-2(3H)-ylidene]-5-(trifluoromethyl)benzamide], the values for the Ki in assay [1] (setting [3]) and in assay [2] (setting [4]) were 5.1 nM and 2.7 nM, respectively.
The corresponding values for `CCCCn1nc(C(C)(C)C)s/c1=N\C(=O)c1cc(C(F)(F)F)ccc1NN=C(C)C` [Example 187, N-[(2Z)-3-butyl-5-tert-butyl-1,3,4-thiadiazol-2(3H)-ylidene]-2-[2-(1-methylethylidene)hydrazino]-5-(trifluoromethyl)benzamide] are 247 nM and 120 nM.
The corresponding values for `CCCCn1nc(C(C)(C)C)s/c1=N\C(=O)c1cc(C(F)(F)F)ccc1ON=C(N)C1CC1` [Example 188, 2-({[amino(cyclopropyl)methylene]amino}oxy)-N-[(2Z)-3-butyl-5-tert-butyl-1,3,4-thiadiazol-2(3H)-ylidene]-5-(trifluoromethyl)benzamide] are 2.5 nM and 0.9 nM.
`CCCCn1nc(C(C)(C)C)s/c1=N\C(=O)c1cc(C(F)(F)F)ccc1ON=C1CCCCCN1` [Example 189, 2-{[azepan-2-ylideneamino]oxy}-N-[(2Z)-3-butyl-5-tert-butyl-1,3,4-thiadiazol-2(3H)-ylidene]-5-(trifluoromethyl)benzamide]: the Ki in assay [1] (setting [3]) was 1.6 nM; in assay [2] (setting [4]) it was 4.9 nM.
The corresponding values for `CCCCn1nc(C(C)(C)C)s/c1=N\C(=O)c1cc(C(F)(F)F)ccc1ON=C1CCCC1` [Example 190, N-[(2Z)-3-butyl-5-tert-butyl-1,3,4-thiadiazol-2(3H)-ylidene]-2-[(cyclopentylideneamino)oxy]-5-(trifluoromethyl)benzamide] are 1.7 nM and 3.2 nM.
The corresponding values for `CCCCn1nc(C(C)(C)C)s/c1=N\C(=O)c1cc(C(F)(F)F)ccc1NNC(=O)c1ccncc1` [Example 191, N-[(2Z)-3-butyl-5-tert-butyl-1,3,4-thiadiazol-2(3H)-ylidene]-2-(2-isonicotinoylhydrazino)-5-(trifluoromethyl)benzamide] are 0.8 nM and 0.9 nM.
On to `CCCCn1nc(C(C)(C)C)s/c1=N\C(=O)c1cc(C(F)(F)F)ccc1NNC(=O)OC` [Example 192, methyl 2-[2-({[(2Z)-3-butyl-5-tert-butyl-1,3,4-thiadiazol-2(3H)-ylidene]amino}carbonyl)-4-(trifluoromethyl)phenyl]hydrazinecarboxylate], for which the Ki in assay [1] and in assay [2] was 0.7 nM each time.

Values taken from patent publication US8859596B2, “Compounds as cannabinoid receptor ligands” (priority 2008, dated 2014).
